SMILES strings stand for the structures. Converted amounts (≈) assume the structure as drawn.

This note sets out measurements from ChEMBL document CHEMBL2424576, “Chiral N-benzyl-N-methyl-1-(naphthalen-1-yl)ethanamines and their in vitro antifungal activity against Cryptococcus neoformans, Trichophyton mentagrophytes and Trichophyton rubrum” (2013).

Common to all, as to type: functional
Experiment [1] has as its system Trichophyton mentagrophytes. As to the kind of experiment: Antifungal activity against Trichophyton mentagrophytes after 7 days by broth microdilution method. The settings on record: 168 h.
In experiment [2] the test system is Cryptococcus neoformans. The experiment in a line: Antifungal activity against Cryptococcus neoformans after 72 hrs by broth microdilution method.
Experiment [3] has as its system Trichophyton rubrum. The experiment in a line: Antifungal activity against Trichophyton rubrum after 7 days by broth microdilution method. The following applies: 168 h. Background: Broth dilution looks for growth in wells or tubes with falling amounts of substance.
The test system of experiment [4] is Trichophyton mentagrophytes. As to the kind of experiment: Antifungal activity against Trichophyton mentagrophytes assessed as fungal growth at 0.25 ug/ml after 7 days by broth microdilution method.
Experiment [5] deals with Trichophyton rubrum. The experiment in a line: Antifungal activity against Trichophyton rubrum assessed as fungal growth at 0.25 ug/ml after 7 days by broth microdilution method.
For experiment [6], the system named is Cryptococcus neoformans. As to the kind of experiment: Antifungal activity against Cryptococcus neoformans assessed as fungal growth at 0.125 ug/ml after 72 hrs by broth microdilution method.

As usually defined, the MIC50 is the lowest concentration that inhibits either 50% of growth or 50% of the strains tested, depending on the study. High values mean weaker potency, low ones greater potency. What is called MIC80 is the lowest concentration that inhibits either 80% of growth or 80% of the strains tested, depending on the study. As for `C[C@H](c1ccc(C(C)(C)C)cc1)N(C)Cc1cccc2ccccc12`, the MIC50 in experiment [1], in experiment [2] and in experiment [3] was greater than 32 µg/mL throughout. Moreover, the MIC80 in experiment [1], in experiment [2] and in experiment [3] was greater than 32 µg/mL throughout.
In experiment [2], `C[C@H](c1cccc2ccccc12)N(C)Cc1ccccc1` yielded an MIC50 of 16 µg/mL (≈ 58.1 µM) and an MIC80 greater than 16 µg/mL.
For `C[C@H](c1cccc2ccccc12)N(C)Cc1ccc(-c2ccccc2)cc1`, in that order: greater than 16 µg/mL and greater than 32 µg/mL.
Consider `C[C@H](c1cccc2ccccc12)N(C)Cc1ccc(OCc2ccccc2)cc1`, for which the MIC50 was determined as 0.125 µg/mL (≈ 0.328 µM) in experiment [1], 0.5 µg/mL (≈ 1.31 µM) in experiment [2] and 0.125 µg/mL (≈ 0.328 µM) in experiment [3]. Moreover, the results for the MIC80 in experiment [1], in experiment [2] and in experiment [3] were 0.25 µg/mL (≈ 0.655 µM), 1 µg/mL (≈ 2.62 µM) and 0.25 µg/mL (≈ 0.655 µM), respectively.
`CN(Cc1ccc(C(C)(C)C)cc1)Cc1cccc2ccccc12` [BUTENAFINE]: the MIC50 in experiment [1] was found to be 0.06 µg/mL (≈ 0.189 µM); in experiment [2], 0.5 µg/mL (≈ 1.57 µM); in experiment [3] it was 0.03 µg/mL (≈ 0.0945 µM). Moreover, the MIC80 was found to be 0.125 µg/mL (≈ 0.394 µM) in experiment [1], 1 µg/mL (≈ 3.15 µM) in experiment [2] and 0.06 µg/mL (≈ 0.189 µM) in experiment [3].
Consider `C[C@H](c1cccc2ccccc12)N(C)Cc1ccccc1F`, for which, in experiment [2], the MIC50 is greater than 32 µg/mL and the MIC80 is greater than 32 µg/mL.
Regarding `C[C@H](c1cccc2ccccc12)N(C)Cc1cccnc1`, in experiment [2], the MIC50 is greater than 32 µg/mL and the MIC80 was greater than 32 µg/mL.
Take `C[C@H](c1cccc2ccccc12)N(C)Cc1cccc(Br)c1`: the MIC50 came out at 2 µg/mL (≈ 5.65 µM) in experiment [1], 4 µg/mL (≈ 11.3 µM) in experiment [2] and 1 µg/mL (≈ 2.82 µM) in experiment [3]. In addition, the MIC80 in experiment [1] came to 4 µg/mL (≈ 11.3 µM); in experiment [2], 8 µg/mL (≈ 22.6 µM); in experiment [3], 2 µg/mL (≈ 5.65 µM).
In experiment [2], `C[C@H](c1cccc2ccccc12)N(C)Cc1ccccn1` came in with an MIC50 greater than 32 µg/mL and an MIC80 greater than 32 µg/mL.
For `C[C@H](c1cccc2ccccc12)N(C)Cc1cc(C(C)(C)C)cc(C(C)(C)C)c1`, in experiment [2], the MIC50 came out at 32 µg/mL (≈ 82.6 µM) and the MIC80 is greater than 32 µg/mL.
Turning to `Cc1cc(C(C)(C)C)cc(C)c1CN(C)[C@H](C)c1cccc2ccccc12`, the MIC50 in experiment [1] is greater than 32 µg/mL; in experiment [2] it was 1 µg/mL (≈ 2.78 µM); in experiment [3], greater than 32 µg/mL. Besides, the results for the MIC80 in experiment [1], in experiment [2] and in experiment [3] were greater than 32 µg/mL, 32 µg/mL (≈ 89 µM) and greater than 32 µg/mL, respectively.
Consider `CC(C)(C)c1ccc([C@H](CF)NCc2cccc3ccccc23)cc1`, for which the MIC50 was 2 µg/mL (≈ 5.96 µM) in experiment [1], greater than 32 µg/mL in experiment [2] and 2 µg/mL (≈ 5.96 µM) in experiment [3]. In addition, the MIC80 was 4 µg/mL (≈ 11.9 µM) in experiment [1], greater than 32 µg/mL in experiment [2] and 4 µg/mL (≈ 11.9 µM) in experiment [3].
In experiment [2], `C[C@H](c1cccc2ccccc12)N(C)Cc1ccccc1-c1ccccc1` had an MIC50 greater than 32 µg/mL and an MIC80 greater than 32 µg/mL.
For `CC(C)(C)c1ccc([C@@H](CF)NCc2cccc3ccccc23)cc1`, the MIC50 in experiment [1], in experiment [2] and in experiment [3] was greater than 32 µg/mL throughout. Besides, the MIC80 in experiment [1], in experiment [2] and in experiment [3] was greater than 32 µg/mL each time.
As to `CN(Cc1cccc2ccccc12)[C@@H](CF)c1ccc(C(C)(C)C)cc1`, the MIC50 in experiment [1], in experiment [2] and in experiment [3] was greater than 32 µg/mL in each case. Moreover, the MIC80 in experiment [1], in experiment [2] and in experiment [3] was greater than 32 µg/mL each time.
Consider `C[C@H](c1cccc2ccccc12)N(C)Cc1ccccc1Br`, for which, in experiment [2], the MIC50 is greater than 32 µg/mL and the MIC80 was greater than 32 µg/mL.
Turning to `Cc1ccc(CN(C)[C@H](C)c2cccc3ccccc23)cc1`, the MIC50 in experiment [1] came out at 0.25 µg/mL (≈ 0.864 µM); in experiment [2] it was 0.5 µg/mL (≈ 1.73 µM); in experiment [3], 0.25 µg/mL (≈ 0.864 µM). In addition, the MIC80 turned out to be 0.5 µg/mL (≈ 1.73 µM) in experiment [1], 1 µg/mL (≈ 3.46 µM) in experiment [2] and 0.5 µg/mL (≈ 1.73 µM) in experiment [3].
With `C[C@H](c1cccc2ccccc12)N(C)Cc1ccc([Si](C)(C)C)cc1`, the Activity in experiment [4] and in experiment [5] was greater than 50% each time. In addition, the MIC80 was 0.5 µg/mL (≈ 1.44 µM) in experiment [1], 1 µg/mL (≈ 2.88 µM) in experiment [2] and 0.5 µg/mL (≈ 1.44 µM) in experiment [3]. This compound also came in with an MIC50 in experiment [2] of 0.5 µg/mL (≈ 1.44 µM).
In experiment [2], `C[C@H](c1cccc2ccccc12)N(C)Cc1cc(C(F)(F)F)cc(C(F)(F)F)c1` yielded an MIC50 greater than 32 µg/mL and an MIC80 greater than 32 µg/mL.
In the case of `C[C@@H]1[C@H](O)[C@@H](C)/C=C/C=C/C=C/C=C/C=C/C=C/C=C/[C@H](O[C@@H]2O[C@H](C)[C@@H](O)[C@H](N)[C@@H]2O)C[C@@H]2O[C@](O)(C[C@@H](O)C[C@@H](O)[C@H](O)CC[C@@H](O)C[C@@H](O)CC(=O)O[C@H]1C)C[C@H](O)[C@H]2C(=O)O` [AMPHOTERICIN B], the MIC50 in experiment [1] was 0.5 µg/mL (≈ 0.541 µM); in experiment [2] it was 0.25 µg/mL (≈ 0.271 µM); in experiment [3], greater than 0.25 µg/mL. For the same compound, the figures for the MIC80 in experiment [1], in experiment [2] and in experiment [3] were less than 1 µg/mL, less than 0.5 µg/mL and less than 0.5 µg/mL, respectively.
As to `C[C@H](c1cccc2ccccc12)N(C)Cc1ccc(C(C)(C)C)cc1`, the Activity in experiment [6] is greater than 50%. For the same compound, the MIC50 in experiment [1] and in experiment [3] was 0.06 µg/mL (≈ 0.181 µM) each time. For the same compound, the MIC80 in experiment [1] is 0.125 µg/mL (≈ 0.377 µM); in experiment [2], 0.25 µg/mL (≈ 0.754 µM); in experiment [3] it was 0.125 µg/mL (≈ 0.377 µM).
`C[C@@H](c1cccc2ccccc12)N(C)Cc1ccc(C(C)(C)C)cc1`: in experiment [2], the MIC50 was found to be 1 µg/mL (≈ 3.02 µM) and the MIC80 was found to be 2 µg/mL (≈ 6.03 µM).
Consider `C[C@H](c1cccc2ccccc12)N(C)Cc1ccc(OC(F)(F)F)cc1`, for which the Activity in experiment [4] is greater than 50%. Moreover, the MIC80 in experiment [1] was 0.5 µg/mL (≈ 1.39 µM); in experiment [2] it was 4 µg/mL (≈ 11.1 µM); in experiment [3], 1 µg/mL (≈ 2.78 µM). The MIC50 in experiment [2] worked out at 2 µg/mL (≈ 5.56 µM); in experiment [3], 0.5 µg/mL (≈ 1.39 µM).
In the case of `C[C@H](c1cccc2ccccc12)N(C)Cc1ccccc1C(F)(F)F`, in experiment [2], the MIC50 is greater than 32 µg/mL and the MIC80 was greater than 32 µg/mL.
`C[C@H](c1cccc2ccccc12)N(C)Cc1ccc(Br)cc1`: the MIC50 in experiment [1] is 0.25 µg/mL (≈ 0.706 µM); in experiment [2], 0.5 µg/mL (≈ 1.41 µM); in experiment [3] it was 0.125 µg/mL (≈ 0.353 µM). In addition, the MIC80 in experiment [1] came to 0.5 µg/mL (≈ 1.41 µM); in experiment [2], 1 µg/mL (≈ 2.82 µM); in experiment [3], 0.25 µg/mL (≈ 0.706 µM).
In experiment [2], `C[C@H](c1cccc2ccccc12)N(C)Cc1ccc(F)cc1` yielded an MIC50 of 4 µg/mL (≈ 13.6 µM) and an MIC80 of 8 µg/mL (≈ 27.3 µM).
As for `COc1ccc(CN(C)[C@H](C)c2cccc3ccccc23)cc1`, the results for the MIC50 in experiment [1], in experiment [2] and in experiment [3] were 1 µg/mL (≈ 3.27 µM), 2 µg/mL (≈ 6.55 µM) and 1 µg/mL (≈ 3.27 µM), respectively. The MIC80 in experiment [1] was 2 µg/mL (≈ 6.55 µM); in experiment [2], 4 µg/mL (≈ 13.1 µM); in experiment [3] it was 2 µg/mL (≈ 6.55 µM).
Consider `C[C@@H](c1ccc(C(C)(C)C)cc1)N(C)Cc1cccc2ccccc12`, for which the MIC50 in experiment [1] was 0.5 µg/mL (≈ 1.51 µM); in experiment [2], 2 µg/mL (≈ 6.03 µM); in experiment [3], 0.5 µg/mL (≈ 1.51 µM). The results for the MIC80 in experiment [1], in experiment [2] and in experiment [3] were 1 µg/mL (≈ 3.02 µM), 4 µg/mL (≈ 12.1 µM) and 1 µg/mL (≈ 3.02 µM), respectively.
For `C[C@H](c1cccc2ccccc12)N(C)Cc1ccc(C(F)(F)F)cc1`, the figures for the MIC50 in experiment [1], in experiment [2] and in experiment [3] were 0.25 µg/mL (≈ 0.728 µM), 0.5 µg/mL (≈ 1.46 µM) and 0.25 µg/mL (≈ 0.728 µM), respectively. The MIC80 in experiment [1] was found to be 0.5 µg/mL (≈ 1.46 µM); in experiment [2] it was 1 µg/mL (≈ 2.91 µM); in experiment [3], 0.5 µg/mL (≈ 1.46 µM).
For the compound `C[C@H](c1cccc2ccccc12)N(C)Cc1cccc(C(F)(F)F)c1`, the MIC50 in experiment [1] amounted to 4 µg/mL (≈ 11.6 µM); in experiment [2], 4 µg/mL (≈ 11.6 µM); in experiment [3], 2 µg/mL (≈ 5.82 µM). Moreover, the MIC80 was greater than 32 µg/mL in experiment [1], 8 µg/mL (≈ 23.3 µM) in experiment [2] and 4 µg/mL (≈ 11.6 µM) in experiment [3].
In experiment [2], `C[C@H](c1cccc2ccccc12)N(C)Cc1ccncc1` returned an MIC50 of 16 µg/mL (≈ 57.9 µM) and an MIC80 greater than 32 µg/mL.
For `C[C@H](c1cccc2ccccc12)N(C)Cc1ccc([N+](=O)[O-])cc1`, the values for the MIC50 in experiment [1], in experiment [2] and in experiment [3] were 1 µg/mL (≈ 3.12 µM), 2 µg/mL (≈ 6.24 µM) and 0.25 µg/mL (≈ 0.78 µM), respectively. Moreover, the figures for the MIC80 in experiment [1], in experiment [2] and in experiment [3] were 2 µg/mL (≈ 6.24 µM), greater than 16 µg/mL and 0.5 µg/mL (≈ 1.56 µM), respectively.
`CN(Cc1cccc2ccccc12)[C@H](CF)c1ccc(C(C)(C)C)cc1`: the MIC50 in experiment [1], in experiment [2] and in experiment [3] was greater than 32 µg/mL throughout. Further, the MIC80 in experiment [1], in experiment [2] and in experiment [3] was greater than 32 µg/mL in each case.
